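Five compound concentrations were applied to cells in 96-well plates for 48 hours; endpoints were derived by simple linear interpolation of the resulting dose-response curve. The concentration for full growth arrest is given as TGI.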
What was measured:
Experiment in all cases: NCI tumour cell line growth inhibition, 48 h
786-0 renal = test system: 786-0 renal
A498 renal = test system: A498 renal
A549 NSCLC = test system: A549 NSCLC
ACHN renal = test system: ACHN renal
BT-549 breast = test system: BT-549 breast
CAKI-1 renal = test system: CAKI-1 renal
CCRF-CEM leukemia = test system: CCRF-CEM leukemia
COLO 205 colon = test system: COLO 205 colon
DU-145 prostate = test system: DU-145 prostate
EKVX NSCLC = test system: EKVX NSCLC
HCT-116 colon = test system: HCT-116 colon
HCT-15 colon = test system: HCT-15 colon
HL-60(TB) leukemia = test system: HL-60(TB) leukemia
HOP-62 NSCLC = test system: HOP-62 NSCLC
HOP-92 NSCLC = test system: HOP-92 NSCLC
HS 578T breast = test system: HS 578T breast
HT29 colon = test system: HT29 colon
IGROV1 ovarian = test system: IGROV1 ovarian
K-562 leukemia = test system: K-562 leukemia
KM12 colon = test system: KM12 colon
LOX IMVI melanoma = test system: LOX IMVI melanoma
M14 melanoma = test system: M14 melanoma
MALME-3M melanoma = test system: MALME-3M melanoma
MCF7 breast = test system: MCF7 breast
MDA-MB-231 breast = test system: MDA-MB-231 breast
MDA-MB-435 = test system: MDA-MB-435
MDA-N = test system: MDA-N
MOLT-4 leukemia = test system: MOLT-4 leukemia
NCI-H226 lung = test system: NCI-H226 lung
NCI-H23 lung = test system: NCI-H23 lung
NCI-H460 lung = test system: NCI-H460 lung
NCI-H522 lung = test system: NCI-H522 lung
NCI/ADR-RES ovarian = test system: NCI/ADR-RES ovarian
OVCAR-3 ovarian = test system: OVCAR-3 ovarian
OVCAR-4 ovarian = test system: OVCAR-4 ovarian
OVCAR-5 ovarian = test system: OVCAR-5 ovarian
OVCAR-8 ovarian = test system: OVCAR-8 ovarian
PC-3 prostate = test system: PC-3 prostate
RPMI-8226 leukemia = test system: RPMI-8226 leukemia
RXF 393 renal = test system: RXF 393 renal
SF-268 CNS = test system: SF-268 CNS
SF-295 CNS = test system: SF-295 CNS
SF-539 CNS = test system: SF-539 CNS
SK-MEL-2 melanoma = test system: SK-MEL-2 melanoma
SK-MEL-28 melanoma = test system: SK-MEL-28 melanoma
SK-MEL-5 melanoma = test system: SK-MEL-5 melanoma
SK-OV-3 ovarian = test system: SK-OV-3 ovarian
SN12C renal = test system: SN12C renal
SNB-19 CNS = test system: SNB-19 CNS
SNB-75 CNS = test system: SNB-75 CNS
SR leukemia = test system: SR leukemia
SW-620 colon = test system: SW-620 colon
T-47D breast = test system: T-47D breast
TK-10 renal = test system: TK-10 renal
U251 CNS = test system: U251 CNS
UACC-257 melanoma = test system: UACC-257 melanoma
UACC-62 melanoma = test system: UACC-62 melanoma
UO-31 renal = test system: UO-31 renal
HCC-2998 colon = test system: HCC-2998 colon

Measured: TGI

O=C(CC1C=Cc2ccccc2N1C(=O)c1ccccc1)c1ccccc1 (centres undefined)
35.4 µM: SR leukemia
78.1 µM: SF-295 CNS
45.6 µM: HCT-116 colon
42.5 µM: COLO 205 colon
93.5 µM: A498 renal
61 µM: MALME-3M melanoma
30.2 µM: SK-MEL-5 melanoma
47.8 µM: MDA-MB-435
43.4 µM: HL-60(TB) leukemia
94 µM: MDA-MB-231 breast
67.4 µM: HS 578T breast
99.9 µM: NCI-H226 lung
86 µM: HOP-92 NSCLC
67.8 µM: LOX IMVI melanoma
28.5 µM: UACC-62 melanoma
47.4 µM: EKVX NSCLC
61.3 µM: UACC-257 melanoma
61.8 µM: KM12 colon
39 µM: MDA-N
38.8 µM: SK-MEL-2 melanoma
40.2 µM: HT29 colon
39.9 µM: RPMI-8226 leukemia
34.7 µM: OVCAR-3 ovarian
69.7 µM: BT-549 breast
65.1 µM: U251 CNS
65.6 µM: M14 melanoma
53.2 µM: NCI-H522 lung
66.7 µM: SF-539 CNS
96.6 µM: PC-3 prostate
34.6 µM: MOLT-4 leukemia
45.9 µM: SN12C renal
not listed: HCC-2998 colon
> 100 µM: all other assays above

NC(Cc1ccc2nc3c4ccccc4c(=O)cc-3oc2c1)C(=O)O (centres undefined)
36.8 µM: MALME-3M melanoma
29.4 µM: MDA-N
65.1 µM: NCI-H23 lung
32.3 µM: MDA-MB-435
34.6 µM: SK-MEL-5 melanoma
41.4 µM: MCF7 breast
not listed: A498 renal | MOLT-4 leukemia | NCI-H226 lung | NCI-H522 lung | OVCAR-8 ovarian
> 100 µM: all other assays above

NCCN1C(=O)c2ccccc2C1c1ccc(Cl)cc1 (centres undefined)
not listed: MALME-3M melanoma | NCI-H226 lung | NCI-H522 lung
> 100 µM: all other assays above

CCC(C)C(=O)OCC(=O)c1ccc(-c2ccccc2)cc1 (centres undefined)
71.5 µM: RPMI-8226 leukemia
43.3 µM: HCT-15 colon
87.4 µM: UACC-257 melanoma
72.6 µM: SK-MEL-5 melanoma
74.9 µM: NCI-H522 lung
84.4 µM: EKVX NSCLC
not listed: NCI-H226 lung | OVCAR-4 ovarian | RXF 393 renal
> 100 µM: all other assays above

— PubChem BioAssay (NCI)
